Reference: patent US11274131B2, “IgM-mediated receptor clustering and cell modulation” (MAYO FOUNDATION FOR MEDICAL EDUCATION AND RESEARCH, priority 2007, dated 2022)

Legend:
mouse DC = experiment: Cap formation / FRET on mouse DC; format: cell-based
Experimental: DC of murine origin were stained with anti-Class II-FITC (MF/114.15.2), and either anti-CD80-PE (16.10A1)/CD86-PE (GL-1), or anti-CD11c-PE (N418). DC of human origin were stained with anti-Class II-FITC (LN3) and anti-CD80-PE (2D10.4)/CD86-PE (IT2.2). All incubations were carried out for 15 minutes at 37° C. The cells were subsequently stimulated with 10 μg/ml of control (sHIgM39) or B7-DC XAb, and were observed every 5 minutes using time lapse confocal imaging at 40.times magnification with a LSM510 Laser scanning confocal microscope having a 37° C. stage (Carl-Zeiss Inc, Oberkochen, Germany). Jurkat cells were pre stained with anti-human CD28-FITC (CD28.2) for 15 minutes, followed by addition of 10 μg/ml of MTAb control antibody sHIgM39, MTAb sHIgM22, or anti-K^b IgM (28-13-3), and were and analyzed in the same manner as the DC.
The flow cytometry approach for FRET was used as a way of quantifying molecular aggregation on the cell surface and was carried out as described previously (Block et al. (2001) J. Immunol. 167:821-826). Briefly, DC of murine origin were stained with anti-Class II APC (M5/114.15.2) and anti-CD80-PE (16.10A1)/CD86-PE(GL-1) for 15 minutes to visualize FRET between these molecules. Monitoring for FRET induced by interaction between TREM-2 and Class-II molecules was achieved by incubating the cells with the abovementioned anti-Class-II antibody and anti-TREM-2-PE (237920). DC of human origin were stained for 15 minutes with APC-anti class II (LN3) and anti-CD80-PE (2D10.4)/CD86-PE (IT2.2). In experiments involving blocking of B7-DC, both fluorophore labeled antibodies and purified anti-mouse B7-DC (TY-25) or purified anti-human B7-DC (MIH18) IgG monoclonal antibody was added at 10 μg/ml for 15 minutes. Jurkat cells were stained with anti-human Class I-PE (G46-2.6) or anti-human CD4 (RPA-T4) and anti-human CD28-APC (CD28.2) for 15 minutes. Cells were stimulated with control antibody or B7-DC XAb or purified anti-mouse class II IgM (25-9-3) (experiments involving DC) or sHIgM22 (experiments involving Jurkat cells) and aliquots from different groups were taken at different time points. After 15 minutes of incubation, the cells were washed and fixed in 2% paraformaldehyde prior to analysis by FACS using a FACSCALIBER™ (BD Biosciences, Franklin Lakes, N.J.). Data collected as log10 fluorescence were analyzed using CELLQUEST™ (BD Biosciences). The FRET signal was visualized in FL3 channel (650-670 nm LP).

CpG-treated DCs = experiment: Antigen persistence in CpG-treated DCs; format: cell-based, mouse; conditions: CpG-treated wild type DCs or B7DC−/− DCs
Experimental: FIG. 15 is a series of histograms showing restoration of antigen persistence in CpG-treated DCs expressing Kb-peptide constructs upon treatment with the appropriate MTab. DCs were untreated (blue) or treated with 10 ug/mL CpG (red) 48 hours prior to harvesting. They were then pulsed with Ovalbumin-Alexa647 and either hIgM12, hIgM22, or 28-13-3, and Ovalbumin-647 levels were measured in CD11c positive cells by flow cytometry.
The ability of Kb-peptide expressing DCs to alter antigen processing was then tested. Untreated DCs take up fluorochrome-labeled protein, and the fluorochrome labeled protein persists over 24 hours, as measured by flow cytometry. DCs treated with a Toll receptor agonist (LPS, CpG, or Polyl:C) 24 hours prior to addition of protein lose their ability to take up and maintain this antigen. […] The ability of B7DC−/− DCs transduced with the Kb-peptide constructs was compared to wild type DCs or knockouts transduced with B7DC.

B16-Ova cells = experiment: B16-Ova tumor challenge with Ova-pulsed antibody-treated DCs; format: in vivo, mouse; conditions: mice given wild type DCs or B7DC reconstituted knockout DCs treated with antibody
Experimental: FIG. 17 is a graph depicting protection of mice from B16-Ova tumor challenge by injection of Ova-pulsed DCs expressing the Kb-peptide constructs treated with MTabs. Tumor area was measured daily, with tumor area on day 11 represented in the graph.
DCs treated with hIgM12 can induce potent anti-tumor immunity. […] A variation of this model was used to determine whether Kb-peptide expressing DCs could induce protective tumor immunity. C57BL6 mice were injected subcutaneously in the right flank with 5×10^5 B16-Ova cells, a B16 variant engineered to express ovalbumin. Wild type DCs or B7DC−/− DCs transduced with mB7DC or the Kb constructs were pulsed with 10 ug/mL ovalbumin and treated with 10 ug/mL of either hIgM12 or hIgM22, 24 hours prior to injection. Before injection, DCs were washed and resuspended in 200 μL, HBSS. 10^6 DCs were injected intravenously by tail vein concurrent to B16 injection. Three mice were used in each treatment group. Tumor area was measured daily, and mice were sacrificed when tumor area reached 289 mm^2. […] Thus, DC expressing Kb-peptide fusions were able to induce protective tumor immunity.

B16 melanoma cells = conditions: mice injected intravenously with antibody directly or DCs pre-treated with antibody and tumor antigen; cited from earlier work

B7-DC XAb: human monoclonal IgM from a Waldenstrom's macroglobulinemia patient that binds and cross-links B7-DC on DC
co-capping of CD80 and CD86 or CD11c with class II molecules (mouse DC; DC from CD80/CD86 double knock out and MHC class II knock out mice): still occurred
reorganization of tagged class II, CD80, CD86 into a capped cluster (mouse DC; mouse DC): reorganized into a distinctly capped cluster
FRET among class II, CD80 and CD86 (mouse DC; mouse DC, within ten minutes): strong FRET signal
time to association of TREM-2 with class II molecules by FRET (mouse DC; mouse DC, increased by 15 minutes): ≤ 5 min
antigen persistence (CpG-treated DCs): restored to untreated levels
protection from tumor outgrowth (B16-Ova cells): successfully protected from tumor outgrowth
protection against B16 melanoma challenge (B16 melanoma cells): protected against challenge by B16 melanoma cells
